Test results published in article PMC3013379 (Bioorganic & Medicinal Chemistry Letters, 2011).

Columns and labels:
human recombinant IKK-β = biological target: T1, human recombinant IKK-β (Homo sapiens, UniProt O14920); test: ELISA-based; assay type: biochemical
T1 sequence (O14920 1-756): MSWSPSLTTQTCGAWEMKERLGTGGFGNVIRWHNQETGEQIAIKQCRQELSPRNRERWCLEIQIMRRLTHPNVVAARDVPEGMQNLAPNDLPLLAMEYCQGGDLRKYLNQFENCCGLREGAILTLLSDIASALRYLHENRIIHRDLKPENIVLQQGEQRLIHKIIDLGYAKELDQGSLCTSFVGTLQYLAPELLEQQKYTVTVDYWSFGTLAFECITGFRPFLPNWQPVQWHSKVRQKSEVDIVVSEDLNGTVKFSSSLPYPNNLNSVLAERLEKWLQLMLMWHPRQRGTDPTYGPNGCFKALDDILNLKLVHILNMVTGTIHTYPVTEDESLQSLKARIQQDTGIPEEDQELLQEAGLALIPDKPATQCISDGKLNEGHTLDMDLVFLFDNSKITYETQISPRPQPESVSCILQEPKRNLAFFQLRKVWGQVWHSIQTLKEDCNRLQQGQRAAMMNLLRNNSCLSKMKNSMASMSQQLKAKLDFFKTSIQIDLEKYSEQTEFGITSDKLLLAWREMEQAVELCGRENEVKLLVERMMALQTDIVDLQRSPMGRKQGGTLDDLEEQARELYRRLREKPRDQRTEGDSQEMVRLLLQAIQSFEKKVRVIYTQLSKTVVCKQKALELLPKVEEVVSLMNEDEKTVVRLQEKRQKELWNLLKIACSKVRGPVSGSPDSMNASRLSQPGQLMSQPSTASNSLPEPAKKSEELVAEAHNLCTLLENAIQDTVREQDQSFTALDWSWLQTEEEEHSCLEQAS

[1] = tested on: NF-κB activation induced by TNF-α in HEK293 cells (293/NFκB-luc); assay type: cell-based; conditions: HEK293 NF-κB luciferase reporter cells, 2 ng/ml TNF-α for 6 h

IC50 (human recombinant IKK-β)	Compound	Effect on TNF-α-induced luciferase activity (in words) [1]
6.95 ± 0.55 µM	O=C(OCCC12CC3CC(CC(C3)C1)C2)c1ccc(NCc2cc(O)ccc2O)cc1 [Compound 8, 2-(1-adamantyl)ethyl 4-[(2,5-dihydroxyphenyl)methylamino]benzoate]	inhibited TNF-α-induced luciferase activity dose-dependently
	NC(=O)Nc1sc(-c2ccc(F)cc2)cc1C(N)=O [IKK-β inhibitor IV, reference compound]	inhibited TNF-α-induced luciferase activity dose-dependently
